Assay results: ChEMBL document CHEMBL1151121, “1H-nmr analysis of herbimycins and dihydro-herbimycins” (1988)
In brackets after ≈: the same amount, converted by molar mass.

Columns and labels:
[1] = system: P388; test: Cytotoxicity against mouse P388 cells; format: functional; conditions: read-out: ED50 (the source's name)
[2] = system: KB; test: Cytotoxicity against human KB cells; format: functional; conditions: read-out: ED50 (the source's name)

Structure (SMILES) | EC50 [1] [µg/mL] | EC50 [2] [µg/mL]
CO[C@H]1[C@@H](OC)C[C@H](C)[C@@H](OC)c2cc(O)cc(c2O)NC(=O)/C(C)=C/C=C\[C@H](OC)[C@@H](OC(N)=O)/C(C)=C/[C@@H]1C [DIHYDRO-HERBIMYCIN A] | 0.022 (≈ 0.0381 µM) | 0.3 (≈ 0.52 µM)
CO[C@H]1/C=C\C=C(/C)C(=O)NC2=CC(=O)C=C(C2=O)[C@H](OC)[C@@H](C)C[C@H](OC)[C@H](O)[C@@H](C)/C=C(\C)[C@@H]1OC(N)=O [HERBIMYCIN C] | 0.17 (≈ 0.303 µM) | 0.12 (≈ 0.214 µM)
CO[C@H]1/C=C\C=C(/C)C(=O)Nc2cc(O)cc(c2O)C[C@@H](C)C[C@H](OC)[C@H](O)[C@@H](C)/C=C(\C)[C@@H]1OC(N)=O | 0.34 (≈ 0.638 µM) | 3.49 (≈ 6.55 µM)
CO[C@H]1[C@@H](OC)C[C@H](C)[C@@H](OC)C2=CC(=O)C=C(NC(=O)/C(C)=C/C=C/[C@H](OC)[C@@H](OC(N)=O)/C(C)=C/[C@@H]1C)C2=O [HERBIMYCIN] | 0.0051 (≈ 0.00887 µM) | 0.12 (≈ 0.209 µM)
